# Test results: article PMC5650142, “GPR40 partial agonists and AgoPAMs: Differentiating effects on glucose and hormonal secretions in the rodent” (PLoS ONE, 2017)
# Several values for one entry are separate records, joined by “and”; a condition that tells them apart may be missing. Equal values may be shown once.
# How the values were obtained:
# GK rats = experiment: GK rat chronic efficacy (28 days: glucose, food intake, body weight, GLP-1, GIP, PYY, insulin, glucagon); assay type: in vivo; parameters: Food Intake Over Time (Fig 3C) / Total Body Weight Change Over Time / Active GLP-1 Levels Over Time: unit not given here; conditions: 30 mpk; for Total Body Weight Change Over Time / Active GLP-1 Levels Over Time / GIP Levels Over Time / PYY Levels Over Time / Plasma Insulin Over Time: GK rats
# Protocol: At the start of the study, fed (ambient) blood glucose was measured via glucometer at 1 h post lights on, and animals were selected and sorted into treatment groups based on ambient glucose (n = 10/ GK group, n = 6 WKY control). Blood for baseline incretin measurements was collected in the PM via tail vein. Rats were dosed via oral gavage (PO) at a volume of 5 ml/kg daily at approximately 12:30 PM with either vehicle (0.5% methylcellulose), AP1 at 30 mg/kg, or AP3 at 30 mg/kg. MK-8666, a GPR40 partial agonist synthesized at Merck & Co., Inc., Kenilworth, NJ USA [13], at 30 mg/kg was administered in feed (Research Diets, New Brunswick, NJ) and provided ad lib. All compounds were administered to achieve maximal efficacious exposures determined in acute efficacy studies similar to those acute studies described above. In brief, partial agonists and AgoPAMs were titrated in the acute GK rat experiment described above and the exposure associated with maximal efficacy in glucose lowering was noted. Partial agonists and AgoPAMs were then dosed to maintain those exposures up to 24h post dose. […] Rats from this group and the WKY controls were administered vehicle PO when the vehicle, AP1, and AP3 groups were treated. Fed blood glucose, food intake, and body weights were determined on days 10, 17, 23, and 28 of study at 2 h post lights on. Immediately after these measures were taken on days 10, 17, 23, and 28, food was removed. After 5h of fasting, animals were dosed with vehicle or compound and allowed to rest for an additional hour. Glucose, GLP-1, GIP, and PYY were measured after 6h of fasting at 1 hr post dose. Fed blood glucose is described by animals having had ad libidum access to feed up till the time of sampling and occurred at 2h post-lights on where rats were nearing the end of their nocturnal feeding cycle. Fasted blood glucose is described by blood glucose sampled after 6h of fasting where food was removed at 2h post lights on. Please note that the fasted sample was taken 1h post oral dosing. On day 10, blood was collected from the tail vein (20 μl) after morning glucose measures and after 6 hour fast from a subset of n = 3 rats per treatment group to determine the fed and fasted exposure of the compounds in circulation. The blood was stored at 4°C in 0.1 M sodium citrate for subsequent analysis of drug exposure.
# Blood for insulin, glucagon, GLP-1, GIP, and PYY measurements was collected into K2EDTA Microtainer tubes (BD, Franklin Lakes, NJ) pre-treated with DPP4 inhibitor (Millipore, Billerica, MA) and cOmplete™ Protease Inhibitor Cocktail Tablets (Roche Diagnostics, Indianapolis, IN). Tubes were centrifuged for 10 minutes at 5000 RPM, and plasma was aliquotted for analysis. Plasma insulin levels were measured via EIA (Mesoscale Discovery ELISA Kit, Gaithersburg MD). Rat plasma total GLP-1 was measured using Total GLP-1 (ver.2) Assay Kit (Cat#: K150JVC). The measurement of active GLP-1 was carried out in a similar manner as that described for total GLP-1 assay with the exception that MSD Active GLP-1 (ver. 2) assay kit (Cat# K150JWC) was used. Rat plasma glucagon was measured using an in-house glucagon assay developed as a MSD format sandwich immunoassay (Merck & Co., Inc., MRL, Kenilworth, NJ USA). The antibody specificity was cross validated via mass- spec using procedures described in Lee et al. Briefly, MSD Streptavidin Gold plates were coated with 2 μg/ml biotin mouse monoclonal antibody generated to glucagon. Test samples were added to the plates and a separate Sulfo- tagged monoclonal antibody was used to detect the captured glucagon protein (2 μg/ml). The ELISA was carried out in the standard reagents in the MSD format. The plate was read on the SECTOR Imager 6000 Reader. Metabolic hormones GIP (Gastric Inhibitory Polypeptide) and PYY (Peptide YY) were measured in rat plasma using the Rat Metabolic Magnetic Bead Panel (EMD Millipore, Billerica, MA). The assay was performed according to manufacturer protocol. […]
# [1] = tested on: pancreatic islets from wild type and GPR40−/− mice; experiment: Isolated pancreatic islets static GDIS assay (insulin, glucagon secretion); assay type: cell-based, mouse; parameters: Islet insulin / Islet insulin, mean: unit not given here; conditions: for glucagon secretion from islets: ex vivo; for Islet Glucagon / Islet insulin: individual replicates; for Islet Glucagon, mean / Islet insulin, mean: mean of replicates
# Protocol: Pancreatic islets of Langerhans were isolated from wild type and GPR40^−/− mice (littermates) by collagenase digestion and discontinuous Ficoll gradient separation. […] Insulin secretion was determined by a 1-h static incubation in Krebs-Ringer bicarbonate (KRB) buffer in a 96-well format as previously described. […] The buffer was removed from the wells at the end of the incubation and assayed for insulin levels using the Insulin ELISA kit (ALPCO, Salem, NH) and glucagon level using glucagon ELISA kit (ALPCO, Salem, NH).
structure (smiles),measurement,setting,value
C[C@H](C(=O)O)[C@H](c1ccc2c(c1)O[C@H](C1CN(Cc3cc(C(F)(F)F)ccc3C(F)(F)F)C1)CC2)C1CC1 [AP3],Food Intake Over Time (Fig 3C),GK rats; Day 10,15.815 and 14.78 and 14.855 and 15.07 and 14.37
same,Food Intake Over Time (Fig 3C),GK rats; Day 17,16.6286 and 16.6643 and 16.8143 and 16.8286 and 16.8071
same,Food Intake Over Time (Fig 3C),GK rats; Day 23,18.5083 and 18.3917 and 17.85 and 19.125 and 17.525
same,Food Intake Over Time (Fig 3C),GK rats; Day 28,17.91 and 18.83 and 18.78 and 18.96 and 19.28
same,Total Body Weight Change Over Time,"GK rats; Day 0, individual animals (Fig 3D)",0
same,Active GLP-1 Levels Over Time,"GK rats; Day 0, individual animals (Fig 4B), 30 mg/kg",1.077 and 2.563 and 1.567 and 0.8713 and 1.148 and 1.431 and 1.186 and 1.3237 and 1.438 and 1.6108
same,GIP Levels Over Time,"GK rats; Day 0, individual animals (Fig 4C), 30 mg/kg",64.6 and 61.42 and 49.69 and 65.31 and 46.23 (2×) and 37.69 and 48.72 and 40.59 and 29.52
same,PYY Levels Over Time,"GK rats; Day 0, individual animals (Fig 4D), 30 mg/kg, in pg/mL (unit assumed)",45.68 and 75.54 and 74.62 and 61.64 and 36.39 and 74.15 and 136.82 and 43.52 and 46.38 and 67.65
same,Plasma Insulin Over Time,"GK rats; Day 0, individual animals (Fig 5A), 30 mg/kg",1.29 ng/mL and 1.017 ng/mL and 1.844 ng/mL and 1.516 ng/mL and 2.832 ng/mL and 2.437 ng/mL and 2.602 ng/mL and 2.286 ng/mL and 2.384 ng/mL and 3.155 ng/mL
same,Total Body Weight Change Over Time,"GK rats; Day 10, individual animals (Fig 3D), 30 mg/kg",11 and 17 and 1 (4×) and 8 and 2 and -5 and -10
same,Active GLP-1 Levels Over Time,"GK rats; Day 10, individual animals (Fig 4B), 30 mg/kg",10.2264 and 10.1136 and 9.093 and 7.341 and 9.911 and 6.136 and 9.947 and 8.858 and 9.564 and 4.836
same,GIP Levels Over Time,"GK rats; Day 10, individual animals (Fig 4C), 30 mg/kg, in pg/mL (unit assumed)",131.59 and 538.63 and 268.56 and 356.56 and 280.21 and 297.28 and 251.81 and 343.6 and 366.22 and 226.85
same,PYY Levels Over Time,"GK rats; Day 10, individual animals (Fig 4D), 30 mg/kg, in pg/mL (unit assumed)",327.63 and 434.04 and 220.17 and 263.06 and 264.64 and 198.53 and 67.33 and 282.5 and 263.78 and 239.29
same,Plasma Insulin Over Time,"GK rats; Day 10, individual animals (Fig 5A), 30 mg/kg",0.805 ng/mL and 1.032 ng/mL and 1.336 ng/mL and 1.205 ng/mL and 1.609 ng/mL and 1.271 ng/mL and 0.3056 ng/mL and 1.028 ng/mL and 1.285 ng/mL and 1.24 ng/mL
same,Total Body Weight Change Over Time,"GK rats; Day 17, individual animals (Fig 3D), 30 mg/kg",17 and 22 and 6 (2×) and 19 and 5 and 10 and 7 and 3 and 4
same,Active GLP-1 Levels Over Time,"GK rats; Day 17, individual animals (Fig 4B), 30 mg/kg",8.7 and 6.18 and 9.28 and 4.41 and 6.22 and 9.2 and 7.03 and 4.78 and 4.82 and 5.22
same,GIP Levels Over Time,"GK rats; Day 17, individual animals (Fig 4C), 30 mg/kg, in pg/mL (unit assumed)",453.42 and 366.18 and 475.48 and 267.46 and 451.8 and 353.69 and 400.36 and 407.49 and 350.93
same,PYY Levels Over Time,"GK rats; Day 17, individual animals (Fig 4D), 30 mg/kg, in pg/mL (unit assumed)",179 and 263.66 and 236.63 and 203.98 and 272.19 and 278.33 and 130.51 and 189.28 and 188.49
same,Plasma Insulin Over Time,"GK rats; Day 17, individual animals (Fig 5A), 30 mg/kg",0.5609 ng/mL and 0.9183 ng/mL and 0.2807 ng/mL and 1.641 ng/mL and 1.961 ng/mL and 1.708 ng/mL and 1.453 ng/mL and 0.6985 ng/mL and 1.1926 ng/mL and 1.855 ng/mL
same,Total Body Weight Change Over Time,"GK rats; Day 23, individual animals (Fig 3D), 30 mg/kg",28 and 34 and 22 and 15 and 18 and 7 and 14 and 17 and 6 and 4
same,Total Body Weight Change Over Time,"GK rats; Day 28, individual animals (Fig 3D), 30 mg/kg",30 and 36 and 25 and 20 and 21 and 10 and 19 and 22 and 14 (2×)
same,Active GLP-1 Levels Over Time,"GK rats; Day 28, individual animals (Fig 4B), 30 mg/kg",7.945 and 6.4879 and 5.324 and 10.6145 and 8.6355 and 6.965 and 4.915 and 7.012 and 6.997 and 8.043
same,GIP Levels Over Time,"GK rats; Day 28, individual animals (Fig 4C), 30 mg/kg, in pg/mL (unit assumed)",257.43 and 223.283 and 216.92 and 196.33 and 188.58 and 171.99 and 248.64 and 189.72 and 162.6 and 177.95
same,PYY Levels Over Time,"GK rats; Day 28, individual animals (Fig 4D), 30 mg/kg, in pg/mL (unit assumed)",237.97 and 76.0833 and 195.93 and 219.09 and 189.97 and 176.63 and 223.29 and 158.15 and 160.92 and 153.75
same,Plasma Insulin Over Time,"GK rats; Day 28, individual animals (Fig 5A), 30 mg/kg",0.8153 ng/mL and 0.3115 ng/mL and 0.9427 ng/mL and 0.8881 ng/mL and 1.431 ng/mL and 0.8809 ng/mL and 1.428 ng/mL and 1.376 ng/mL and 1.352 ng/mL and 1.27 ng/mL
same,glucagon secretion from islets,[1]; GPR40-/- mouse islets,abolished
same,Islet Glucagon,"[1]; KO mouse islets, G2, 1uM",25.089 pg/ml/ islet and 11.858 pg/ml/ islet and 9.721 pg/ml/ islet and 3.205 pg/ml/ islet and 12.4 pg/ml/ islet and 14.931 pg/ml/ islet and 18.163 pg/ml/ islet and 18.456 pg/ml/ islet and 21.346 pg/ml/ islet and 15.13 pg/ml/ islet
same,Islet insulin,"[1]; KO mouse islets, G2, 1uM",0.293 and 0.272 and 0.213 and 0.106 and 0.37 and 0.44 and 0.27 and 0.128 and 1.077 and 0.675
same,"Islet Glucagon, mean","[1]; KO mouse islets, G2, 1uM",15.0299 pg/ml/ islet
same,"Islet insulin, mean","[1]; KO mouse islets, G2, 1uM",0.3844
same,Islet Glucagon,"[1]; KO mouse islets, G16, 1uM",4.043 pg/ml/ islet and 5.474 pg/ml/ islet and 8.717 pg/ml/ islet and 11.984 pg/ml/ islet and 16.06 pg/ml/ islet and 18.271 pg/ml/ islet and 3.382 pg/ml/ islet and 7.691 pg/ml/ islet and 7.902 pg/ml/ islet and 2.338 pg/ml/ islet
same,Islet insulin,"[1]; KO mouse islets, G16, 1uM",5.28 and 3.491 and 4.033 and 2.378 and 3.966 and 1.757 and 3.131 and 3.522 and 3.781 and 3.035
same,"Islet Glucagon, mean","[1]; KO mouse islets, G16, 1uM",8.5862 pg/ml/ islet
same,"Islet insulin, mean","[1]; KO mouse islets, G16, 1uM",3.4374
same,Islet Glucagon,"[1]; WT mouse islets, G2, 1uM",38.183 pg/ml/ islet and 99.219 pg/ml/ islet and 47.629 pg/ml/ islet and 35.059 pg/ml/ islet and 41.718 pg/ml/ islet and 44.978 pg/ml/ islet and 113.083 pg/ml/ islet and 70.443 pg/ml/ islet and 44.123 pg/ml/ islet and 60.974 pg/ml/ islet
same,Islet insulin,"[1]; WT mouse islets, G2, 1uM, listed as L-005427846",1.34 and 1.9735 and 0.61 and 0.65 and 0.79 and 1.22 and 0.9145 and 1.416 and 1.5465 and 1.2555
same,"Islet Glucagon, mean","[1]; WT mouse islets, G2, 1uM",59.5409 pg/ml/ islet
same,"Islet insulin, mean","[1]; WT mouse islets, G2, 1uM",1.1716
same,Islet Glucagon,"[1]; WT mouse islets, G16, 1uM",19.839 pg/ml/ islet and 16.487 pg/ml/ islet and 37.465 pg/ml/ islet and 8.951 pg/ml/ islet and 23.354 pg/ml/ islet and 22.21 pg/ml/ islet and 33.167 pg/ml/ islet and 31.559 pg/ml/ islet and 48.792 pg/ml/ islet
same,Islet insulin,"[1]; WT mouse islets, G16, 1uM, listed as L-005427846",11.936 and 11.639 and 13.085 and 12.097 and 12.133 and 11.613 and 12.28 and 12.692 and 11.465 and 12.253
same,"Islet Glucagon, mean","[1]; WT mouse islets, G16, 1uM",26.8693 pg/ml/ islet
same,"Islet insulin, mean","[1]; WT mouse islets, G16, 1uM",12.1193
same,glucagon secretion from islets,[1]; WT mouse islets,significantly elevated
